According to patent US6919380B2, “Derivatives of C2-substituted indan-1-ol systems for the prophylaxis or treatment of obesity” (Aventis Pharma Deutschland GmbH., priority 2001, dated 2005):

Assays:
female NMRI mice = assay: Anorectic action: cumulative evaporated milk consumption after removal of feed for 24 hours; assay type: in vivo, mouse; settings: dose 10 mg/kg (ip or po, not specified)
Method: The activity of the compounds of the formula I was assayed as follows: […]
The anorectic action was tested on female NMRI mice. After removal of feed for 24 hours, the preparation to be tested was administered intraperitoneally (ip) or by gavage (po). The animals were housed singly and, with free access to drinking water, they were offered evaporated milk 30 minutes after administration of the preparation. The consumption of evaporated milk was determined and the general behavior of the animals was monitored every half an hour for 7 hours. The measured milk consumption was compared to that of vehicle-treated control animals.

CC(=O)OC1c2ccc(Cl)cc2CC1S(C)(=O)=O (stereo not drawn) [Example 1, 1-Acetoxy-5-chloro-2-methylsulfonylindane]
melting point: 136 °C | Reduction in cumulative milk consumption as % of the control (female NMRI mice; compared with control animals): 81% | cumulative milk consumption by treated animals (female NMRI mice; milk offered 30 minutes after administration, monitored for 7 hours): 5/0.28 ml
